# Laboratory results reported in article PMC7504770, “Mechanistic Insights into the Chaperoning of Human Lysosomal-Galactosidase Activity: Highly Functionalized Aminocyclopentanes and C-5a-Substituted Derivatives of 4-epi-Isofagomine” (Molecules, 2020).
# Legend:
# [1] = biological target: T1, Fabrazyme = commercial recombinant lysosomal α-galactosidase (GH27) (Homo sapiens, UniProt P06280); experiment: Ki determination, Fabrazyme (acid α-galactosidase); type: biochemical; details: 37 °C, pH 5.5, substrate 2,4-DNP α-Gal
# T1 construct: purchased
# T1 sequence (P06280 32-429): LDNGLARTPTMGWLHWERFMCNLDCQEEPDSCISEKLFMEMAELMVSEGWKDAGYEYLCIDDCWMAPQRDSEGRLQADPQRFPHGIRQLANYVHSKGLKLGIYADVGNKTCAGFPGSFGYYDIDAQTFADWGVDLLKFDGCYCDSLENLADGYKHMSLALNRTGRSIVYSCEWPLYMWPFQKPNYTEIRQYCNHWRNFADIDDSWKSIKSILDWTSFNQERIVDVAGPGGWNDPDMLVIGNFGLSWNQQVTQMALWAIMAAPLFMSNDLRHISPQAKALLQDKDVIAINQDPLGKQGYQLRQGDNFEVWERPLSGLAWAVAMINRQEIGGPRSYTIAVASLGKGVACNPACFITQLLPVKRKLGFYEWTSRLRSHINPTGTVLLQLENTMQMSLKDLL
# Experimental: (§1) Kinetic studies were performed at 37 °C in an appropriate buffer (specific conditions depicted below). In a typical assay, the enzyme was incubated with different inhibitor concentrations for up to 5 min before initiating the reaction by the addition of substrate. The initial reaction rate was measured by monitoring the increase in absorbance at 400 nm for up to ten minutes using a Cary4000 (Varian, Palo Alto, CA, USA). Ki determinations were performed using at least two different substrate concentrations. For each inhibitor, a range of four to six inhibitor concentrations bracketing the ultimately determined Ki value was used for each substrate concentration. Dixon plots (1/v vs. [I]) were constructed to validate the use of competitive inhibition model. The data were then fit using non-linear regression analysis with Grafit 7.0 [Erithacus Software, UK].
# (§2) n.i. stands for no inhibition or weak inhibition with an estimated Ki value higher than 1 mM.
# Fabrazyme (Acid α-galactosidase): 20 mM sodium citrate, 50 mM sodium phosphate, 1.0 mM tetrasodium EDTA, 0.25% v/v Triton X-100® and 0.25% w/v taurocholic acid buffer (pH 5.5). Substrate: 2,4-DNP α-Gal, Km = 0.65 mM.
# [2] = biological target: T2, human lysosomal acid β-galactosidase (GH35) (Homo sapiens, UniProt P16278); experiment: IC50, modified β-Gal assay in normal fibroblast homogenate; type: biochemical; details: for IC50: normal fibroblasts, 4-methylumbelliferyl-β-D-galactopyranoside, pH 4.0, read-out: β-Gal human lys. (GH35)
# T2 construct: endogenous in cells; host or cells: normal human skin fibroblasts (homogenate)
# T2 sequence (P16278 29-677): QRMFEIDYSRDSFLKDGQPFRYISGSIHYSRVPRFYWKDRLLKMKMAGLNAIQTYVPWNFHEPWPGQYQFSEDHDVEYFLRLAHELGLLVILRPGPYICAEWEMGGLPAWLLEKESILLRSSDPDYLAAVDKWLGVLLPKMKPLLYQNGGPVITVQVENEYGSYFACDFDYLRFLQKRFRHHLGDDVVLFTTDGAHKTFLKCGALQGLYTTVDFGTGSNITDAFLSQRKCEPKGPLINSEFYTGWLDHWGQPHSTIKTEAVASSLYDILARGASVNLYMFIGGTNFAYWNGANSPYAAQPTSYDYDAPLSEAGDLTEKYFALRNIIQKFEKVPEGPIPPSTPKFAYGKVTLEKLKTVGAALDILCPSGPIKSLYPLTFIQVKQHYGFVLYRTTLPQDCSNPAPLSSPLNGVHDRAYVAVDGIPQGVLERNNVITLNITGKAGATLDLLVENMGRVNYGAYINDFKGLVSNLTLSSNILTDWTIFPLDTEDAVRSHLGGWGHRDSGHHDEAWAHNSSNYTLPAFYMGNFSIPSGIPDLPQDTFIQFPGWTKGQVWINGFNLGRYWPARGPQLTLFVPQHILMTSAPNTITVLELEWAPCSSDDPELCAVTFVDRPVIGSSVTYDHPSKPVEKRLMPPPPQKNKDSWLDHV
# Experimental: (§3) Human β-galactosidase and β-hexosaminidase activity measurements were performed in duplicate assays, unless otherwise stated. Fibroblast cells were harvested by trypsinization in 0.9% NaCl containing 0.01% Triton, homogenized by sonication (3 × 10 s, Sonifier Bandelin Sonopuls, Bandelin, Berlin, Germany) and centrifuged at 13,000 rpm for 2 min in a table top centrifuge (Biofuge Pico, Heraeus, Hanau, Germany). Protein amounts were determined according to the method of Lowry.
# For assessment of β-Gal activity, 20 µL of cell homogenate were mixed with 100 µL of 0.5 mM 4-methylumbelliferyl-β-D-galactopyranoside (Sigma-Aldrich, St. Louis, MO, USA), in 100 mM citrate buffer (pH 4.0) containing 100 mM NaCl and 0.02% NaN3. After incubation at 37 °C for 30 min, the reaction was stopped by adding 2.5 mL 400 mM glycine/NaOH (pH 10.4).
# Modified β-Gal assays were used to estimate the half maximal inhibitory concentration (IC50) of the particular chaperone. For IC50 determination, 0.001 to 100 µM of chaperone was added to the assay mixture. Activity was measured in normal fibroblasts. Data analysis was performed with Microcal™ Origin® v6.0 (Origin Lab, Northampton, MA, USA) using a non-linear curve fitting module based on sigmoid curve fitting.
# Potential chaperones were dissolved in DMSO and diluted in 10 mM phosphate buffer (pH 7.0) containing 100 mM NaCl, 0.01% NaN3, and 0.01% Triton for the IC50-measurements and in MEM for the in-vivo tests. The total DMSO concentration in the media was less than 1% and had no effect on β-Gal activity or cell viability.
# [3] = biological target: lac Z β-galactosidase from E. coli (GH2) (Escherichia coli, UniProt P00722); experiment: Ki determination, E. coli lac Z β-galactosidase; type: biochemical
# Experimental: as §1, §2
# E. coli lac z β-galactosidase: 50 mM sodium phosphate, 1.0 mM MgCl2 (pH 7). Substrate: pNP β-Gal, Km = 60 µM.
# [4] = test system: R201H/S149F mutant lysosomal β-galactosidase; experiment: Chaperoning activity in R201H/S149F cells (Morquio B/GM1-gangliosidosis); type: cell-based, human
# Experimental: as §3
# For assessment of β-Gal activity, 20 µL of cell homogenate were mixed with 100 µL of 0.5 mM 4-methylumbelliferyl-β-D-galactopyranoside (Sigma-Aldrich, St. Louis, MO, USA), in 100 mM citrate buffer (pH 4.0) containing 100 mM NaCl and 0.02% NaN3.
# Human skin fibroblasts were grown in minimal essential medium (MEM) with Earle’s Salts (Sigma Aldrich, St. Louis, MO, USA) containing 10% fetal bovine serum, 400 µM L-glutamine, and 50 µg/mL gentamycin at 37 °C and 5% CO2. All cells used in this study were between the third and nineteenth passages.
# Fibroblasts were grown to semi-confluency in 6-well plates. Particular chaperone was added to the culture medium at following concentrations: 100–0.02 µmol. Cells were incubated for four additional days at 37 °C. Cells were harvested by scraping and prepared for β-galactosidase and β-hexosaminidase assays as described above.
# lac Z β-galactosidase from E. coli (GH2), sequence (P00722 2-1024): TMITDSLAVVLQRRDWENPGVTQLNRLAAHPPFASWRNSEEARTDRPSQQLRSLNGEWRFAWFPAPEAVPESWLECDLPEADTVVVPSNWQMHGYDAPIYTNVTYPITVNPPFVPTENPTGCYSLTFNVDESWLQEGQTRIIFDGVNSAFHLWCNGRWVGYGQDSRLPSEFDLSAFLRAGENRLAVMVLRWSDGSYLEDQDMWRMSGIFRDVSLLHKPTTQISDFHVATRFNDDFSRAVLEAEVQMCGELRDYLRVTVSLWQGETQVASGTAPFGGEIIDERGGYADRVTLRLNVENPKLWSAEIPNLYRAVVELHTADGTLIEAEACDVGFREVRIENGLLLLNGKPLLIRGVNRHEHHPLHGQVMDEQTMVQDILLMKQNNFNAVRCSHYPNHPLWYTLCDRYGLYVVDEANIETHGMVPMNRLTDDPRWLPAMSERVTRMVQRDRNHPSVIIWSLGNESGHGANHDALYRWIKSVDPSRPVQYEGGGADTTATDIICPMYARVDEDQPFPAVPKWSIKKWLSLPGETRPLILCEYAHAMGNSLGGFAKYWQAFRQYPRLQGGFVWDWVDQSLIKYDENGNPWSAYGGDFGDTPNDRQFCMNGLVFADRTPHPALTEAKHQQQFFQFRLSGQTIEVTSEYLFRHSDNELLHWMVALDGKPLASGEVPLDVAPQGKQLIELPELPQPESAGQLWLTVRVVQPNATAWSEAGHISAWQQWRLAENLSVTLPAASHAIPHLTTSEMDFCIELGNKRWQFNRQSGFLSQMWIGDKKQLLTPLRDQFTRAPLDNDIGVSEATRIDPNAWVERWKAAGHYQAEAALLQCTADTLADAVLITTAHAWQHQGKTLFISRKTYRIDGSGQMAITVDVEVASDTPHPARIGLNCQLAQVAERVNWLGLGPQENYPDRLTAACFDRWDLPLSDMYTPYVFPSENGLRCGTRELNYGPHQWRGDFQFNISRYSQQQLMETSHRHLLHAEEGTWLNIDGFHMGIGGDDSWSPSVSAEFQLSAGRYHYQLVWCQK
SMILES,Ki [1] [µM],IC50 [2] [µM],Ki [3] [µM],β-gal activity increase [4] [fold],"fold weaker binding than 17, human lysosomal β-galactosidase ([2]; compared with hydroxylated inhibitor 17)","fold weaker binding than 17, GH2 bacterial glycosidase ([3]; compared to inhibitor 17)"
CCCCCCCCN[C@H]1[C@H](O)[C@@H](O)[C@@H](O)[C@H]1CO [Compound 16],> 1000,0.42,0.0132,,,
CN(C)c1cccc2c(S(=O)(=O)NCCCCCCN[C@H]3[C@H](O)[C@@H](O)[C@@H](O)[C@H]3CO)cccc12 [Compound 17],,,,9,,
CN(C)c1cccc2c(S(=O)(=O)NCCCCCC[C@H]3NC[C@@H](O)[C@@H](O)[C@H]3CO)cccc12 [Compound 22],> 1000,0.094,0.0004,,,
"CN(C)c1cccc2c(S(=O)(=O)NCCCCCCN[C@H]3[C@H](F)[C@@H](O)[C@@H](O)[C@H]3CO)cccc12 [Compound 37, (1S,2S,3S,4R,5R)-4-(6′-Dansylaminohexyl)amino-3-fluoro-5-hydroxymethylcyclopentane-1,2-diol]",> 1000,34.9,5.2,,approx. 90 fold,approx. 500 fold
"CCCCCCCCNC1C=C(CO)C(O)C(O)C1O (stereo not drawn) [Compound 1, N-octyl-epi-valienamine]",> 1000,0.51,2.8,≥ 10,,
"CN(C)c1cccc2c(S(=O)(=O)NCCCCCCN[C@H]3C[C@@H](O)[C@@H](O)[C@H]3CO)cccc12 [Compound 31, (1R,2S,3R,4S)-3-Hydroxymethyl-4-(6′-dansylaminohexylamino)cyclopentane-1,2-diol]",> 1000,82.5,0.0041,,,
CN(C)c1cccc2c(S(=O)(=O)NCCCCC3NCC(O)C(O)C3CO)cccc12 (centres unmarked) [Compound 11],,,,9.5,,
